# Where “and” joins values, the source holds several entries; their conditions need not be identical. Equal entries are not always repeated.
# What was measured:
# [1] = tested on: plasma; assay: Anticoagulant activity: thrombin time (TT), Sysmex CA-1500; assay type: biochemical, human; details: 20 μl sample + 80 μl plasma, number in label = g/dL
# Description: (§1) Antithrombotic (anticoagulant) activity was evaluated according to a previously reported method. Each of thromborel S, actin and thrombin, which are reagents for Sysmex CA-1500 for analysis of PT, aPTT and TT, was mounted in Sysmex CA-1500 (Siemens Healthcare, Germany) which is an automated blood coagulation test device. According to the automated procedure of the test device, clotting time (sec) (prothrombin time (PT), activated partial thromboplastin time (aPTT) and thrombin time (TT)) was measured. A sufficient amount of a sample for each of the three analyses was about 400 uL of an 80:20 mixture of plasma and a test substance.
# (§2) The isolated plasma was used in an experiment in a fresh state within 5-6 hours.
# (§3) In this experiment, for the relative comparison of the measured clotting time (sec) (PT, aPTT and TT) between test groups, clotting time prolongation (%) relative to triple distilled water (purified water) that is a normal control test sample was statistically analyzed. For statistical analysis, the […] anticoagulant activities of test materials were comparatively analyzed using SPSS IBM version 21.0 by one-way ANOVA at p<0.05, and significance comparison between groups was performed by Duncan's test.
# (§4) The aspirin solution was immediately used at room temperature in a light-shielded state or was cold-stored.
# (§5) As a control, aspirin was used, and as a vehicle control, triple distilled water (purified water) was used instead of the sample.
# [2] = Body weight and body weight gain of high-fat diet mice; assay type: in vivo, mice (C57BL/6); details: for Body weight / Body weight gain: high-fat diet mice, mean
# Description: (§6) Using 8-week-old male mice (C57BL/6) (purchased from CoreTech), anti-diabetic candidate materials were evaluated using a GTT (Glucose Tolerance Test) that is a typical method for diagnosis of diabetes.
# (§7) Mice were housed at a temperature of 22±2° C. and a relative humidity of 55-60% with 12-hr light/12-hr dark cycles. Five animals were allotted to each group, and mice from the same mother were grouped into one group, because male mice tend to fight together.
# (§8) As feed, high-fat diet (60% of calories from fat; Research Diet Inc., New Brunswick, N.J.) and water were fed ad libitum for 10 weeks. Herein, the water fed contained the samples prepared in Examples 1-2 (3), 2-1, 2-4-1, 2-4-2 and 2-5. As a positive control, metformin (M-072, Sigma) (250 mg/kg) was used, and as a control, the samples prepared in Comparative Examples 1-1, 2-3-2, 2-5-1, 2-5-2 and 2-6 were used.
# (§9) For reference, each of the samples prepared in Examples 2-4-1, 2-4-2 and 2-5 was set to the amount to be taken by an adult (60 kg) for 3 days, and the amount was converted into a mouse dose (12-fold/kg, see the US NIH guidance), thereby preparing animal feed. Namely, the amount to be taken by an adult (60 kg) for 3 days is 180-day dose/kg, which corresponds to 15-day dose/kg for mice. Thus, the amount corresponds to 750-day dose/mouse (20 g), because the average weight of mice is about 20 g. Thus, one mouse was allowed to take 1/750 of the prepared sample each day.
# (§10) In addition, each of the samples prepared in Examples 1-2 (3) and 2-1 was set to the amount to be taken by an adult (60 kg) for 2 days, and the amount was converted into a mouse dose (12-fold/kg, see the US NIH guidance), thereby preparing animal feed. Namely, the amount to be taken by an adult (60 kg) for 2 days is 120-day dose/kg, which corresponds to 10-day dose/kg for mice. Thus, the amount corresponds to 500-day dose/mouse (20 g), because the average weight of mice is about 20 g. Thus, one mouse was allowed to take 1/500 of the prepared sample each day.
# The diet intake and the body weight gain were measured weekly for 8 weeks. The body weight and the diet intake were measured immediately before first drug administration, and then measured at one-week intervals.
# (§11) Meanwhile, experimental analysis results were expressed as mean±S.E.M., and the significance between test groups was statistically processed using Student T-TEST, and then the significance was verified at *P<0.05.
# [3] = tested on: male mice (C57BL/6), high-fat diet; assay: Glucose tolerance test (GTT) at 8 weeks of high-fat diet feeding; assay type: in vivo
# Description: as §6, §7, §8, §9, §10
# At 8 weeks of high-fat diet feeding, a glucose tolerance test (GTT) was performed. For 8 hours for the test, mice were fasted. Then, blood was sampled from the tail vein, and initial blood glucose levels were measured with a blood glucose meter (AUTO-CHEK, Diatech Korea). Then, glucose was administered intraperitoneally to the mice at a concentration of 1 g/kg, and after 30 min, 60 min, 90 min and 120 min, blood was sampled from the mice, followed by measurement of blood glucose levels (each group consisting of five animals).
# as §11
# [4] = tested on: plasma; assay: Anticoagulant activity: activated partial thromboplastin time (aPTT), Sysmex CA-1500; assay type: biochemical, human; details: 20 μl sample + 80 μl plasma, number in label = g/dL
# Description: as §1, §2, §3, §4, §5
# [5] = tested on: plasma; assay: Anticoagulant activity: prothrombin time (PT), Sysmex CA-1500; assay type: biochemical, human; details: 20 μl sample + 80 μl plasma, number in label = g/dL
# Description: as §1, §2, §3, §4, §5
structure (smiles),measurement,setting,value
"O=C[C@H](O)[C@@H](O)[C@H](O)CO [Xyl, xylose]","TT clotting time prolongation relative to purified water, Mean","[1]; Table 18, listed as Xyl 1.04",2.68%
same,"TT clotting time prolongation relative to purified water, Mean","[1]; Table 18, listed as Xyl 5.2",14.59%
same,"TT clotting time prolongation relative to purified water, Mean","[1]; Table 18, listed as Xyl 7.8",24.41%
"O=C[C@H](O)[C@H](O)[C@H](O)CO [Rib, ribose]","TT clotting time prolongation relative to purified water, Mean","[1]; Table 19, values excluding one sample showing an extreme value, listed as Rib 5.2",23.15%
same,"TT clotting time prolongation relative to purified water, Mean","[1]; Table 19, values excluding one sample showing an extreme value, listed as Rib 10.4",52.50%
"NCCS(=O)(=O)O [Tau, taurine]","Body weight gain, Mean","[2]; HFD mice, sample in drinking water, 8 weeks",9.52 g
same,body weight gain compared to the group administered with high-fat diet (HFD) alone,"[2]; at 8 weeks after high-fat diet feeding, in words",significant reduction in body weight gain
same,fasting glucose level,"[3]; 8 h fasted, 8 weeks of HFD, in words, comparator in the value","all lower than that of the mice administered with high-fat diet (HFD), and were similar to the blood glucose levels of normal mice"
same,glucose control ability in GTT,"[3]; glucose 1 g/kg i.p., 8 weeks of HFD, in words, comparator in the value",significantly higher than that of the group administered with HFD alone
"O=C[C@@H](O)[C@@H](O)[C@H](O)[C@H](O)CO [Mann, mannose]","TT clotting time prolongation relative to purified water, Mean","[1]; Table 20, listed as Mann 3.1",11.67%
same,"TT clotting time prolongation relative to purified water, Mean","[1]; Table 20, listed as Mann 6.2",22.74%
same,"TT clotting time prolongation relative to purified water, Mean","[1]; Table 20, listed as Mann 12.4",47.87%
same,"aPTT clotting time prolongation relative to purified water, Mean","[4]; Table 20, listed as Mann 3.1",0.65%
same,"aPTT clotting time prolongation relative to purified water, Mean","[4]; Table 20, listed as Mann 6.2",1.24%
same,"aPTT clotting time prolongation relative to purified water, Mean","[4]; Table 20, listed as Mann 12.4",7.98%
same,"PT clotting time prolongation relative to purified water, Mean","[5]; Table 20, listed as Mann 3.1",2.71%
same,"PT clotting time prolongation relative to purified water, Mean","[5]; Table 20, listed as Mann 6.2",5.96%
same,"PT clotting time prolongation relative to purified water, Mean","[5]; Table 20, listed as Mann 12.4",13.55%
"O=C(CO)[C@@H](O)[C@H](O)[C@H](O)CO [Fruc, fructose]","TT clotting time prolongation relative to purified water, Mean","[1]; Table 20, listed as Fruc 6.2",13.19%
same,"TT clotting time prolongation relative to purified water, Mean","[1]; Table 20, listed as Fruc 12.4",30.07%
same,"aPTT clotting time prolongation relative to purified water, Mean",[4]; Table 20,−0.20%
same,"aPTT clotting time prolongation relative to purified water, Mean","[4]; Table 20, listed as Fruc 12.4",0.58%
same,"PT clotting time prolongation relative to purified water, Mean",[5]; Table 20,0.54%
"O=C[C@@H](O)[C@H](O)[C@H](O)CO [Ara, arabinose]","TT clotting time prolongation relative to purified water, Mean","[1]; Table 18, listed as Ara 5.2",13.40%
same,"TT clotting time prolongation relative to purified water, Mean","[1]; Table 18, listed as Ara 7.8",22.92%
"O=C[C@H](O)[C@@H](O)[C@H](O)[C@H](O)CO [Gluc, glucose]","TT clotting time prolongation relative to purified water, Mean","[1]; Table 19, values excluding one sample showing an extreme value, listed as Gluc 6.2",16.24%
same,"TT clotting time prolongation relative to purified water, Mean","[1]; Table 19, values excluding one sample showing an extreme value, listed as Gluc 12.4",27.82%
same,"aPTT clotting time prolongation relative to purified water, Mean","[4]; Table 19, listed as Gluc 6.2",2.22%
same,"aPTT clotting time prolongation relative to purified water, Mean","[4]; Table 19, listed as Gluc 12.4",2.89%
same,"PT clotting time prolongation relative to purified water, Mean","[5]; Table 19, listed as Gluc 6.2",1.69%
same,"PT clotting time prolongation relative to purified water, Mean","[5]; Table 19, listed as Gluc 12.4",2.26%
"CC(=O)Oc1ccccc1C(=O)O [Asp 7.5 mg/ml, aspirin]","TT clotting time prolongation relative to purified water, Mean",[1]; Table 18,13.59%
same,"TT clotting time prolongation relative to purified water, Mean","[1]; Table 19, values excluding one sample showing an extreme value",20.96%
same,"TT clotting time prolongation relative to purified water, Mean",[1]; Table 20,23.95%
same,"aPTT clotting time prolongation relative to purified water, Mean",[4]; Table 18,7.31%
same,"aPTT clotting time prolongation relative to purified water, Mean",[4]; Table 19,16.28%
same,"aPTT clotting time prolongation relative to purified water, Mean",[4]; Table 20,29.82%
same,"PT clotting time prolongation relative to purified water, Mean",[5]; Table 18,9.90%
same,"PT clotting time prolongation relative to purified water, Mean",[5]; Table 19,17.51%
same,"PT clotting time prolongation relative to purified water, Mean",[5]; Table 20,26.02%
"CN(C)C(=N)N=C(N)N [Metformin, metformin]",Body weight,[2]; 1 week,21.00 g
same,Body weight,[2]; 2 weeks,22.78 g and 26.344 g
same,Body weight gain,[2]; 2 weeks,3.48 g
same,Body weight,[2]; 3 weeks,23.84 g
same,Body weight gain,[2]; 3 weeks,4.54 g
same,Body weight,[2]; 4 weeks,25.18 g
same,Body weight gain,[2]; 4 weeks,5.88 g and 4.600 g
same,Body weight,[2]; 5 weeks,25.72 g
same,Body weight gain,[2]; 5 weeks,6.42 g
same,Body weight,[2]; 6 weeks,26.34 g
same,Body weight gain,[2]; 6 weeks,7.04 g
same,Body weight,[2]; 7 weeks,27.52 g
same,Body weight gain,[2]; 7 weeks,8.22 g
same,Body weight,[2]; 8 weeks,28.20 g
same,Body weight,[2]; Before admis.,19.30 g
same,"Weight, Mean","[2]; HFD mice, sample in drinking water, 1 week",21.00 g
same,"Weight, Mean","[2]; HFD mice, sample in drinking water, 6 weeks",26.34 g
same,"Glucose level, 0 min","[3]; GTT, high-fat diet mice, 0 min (fasting, before administration), mean",144.20 mg/dL
same,"Glucose level, 30 min","[3]; GTT, high-fat diet mice, 30 min, mean",386.40 mg/dL
same,"Glucose level, 60 min","[3]; GTT, high-fat diet mice, 60 min, mean",301.40 mg/dL
same,"Glucose level, 90 min","[3]; GTT, high-fat diet mice, 90 min, mean",194.40 mg/dL
same,"Glucose level, 120 min","[3]; GTT, high-fat diet mice, 120 min, mean",135.20 mg/dL

# Source: patent US20190152905A1 (priority 2016, published 2019)
